# Laboratory results: patent US5607967A, “Treatment of alzheimer's disease with 5-(tetradecyloxy)-2-furan carboxylic acid” (Merck & Co., Inc., priority 1994, dated 1997)
# Assays:
# [1] = molecular target: T1, native mouse glucocorticoid receptor (Mus musculus, UniProt P06537); assay: Transcription assay, native glucocorticoid receptor co-transfected with MMTV-luciferase reporter
# T1 sequence (P06537 1-792): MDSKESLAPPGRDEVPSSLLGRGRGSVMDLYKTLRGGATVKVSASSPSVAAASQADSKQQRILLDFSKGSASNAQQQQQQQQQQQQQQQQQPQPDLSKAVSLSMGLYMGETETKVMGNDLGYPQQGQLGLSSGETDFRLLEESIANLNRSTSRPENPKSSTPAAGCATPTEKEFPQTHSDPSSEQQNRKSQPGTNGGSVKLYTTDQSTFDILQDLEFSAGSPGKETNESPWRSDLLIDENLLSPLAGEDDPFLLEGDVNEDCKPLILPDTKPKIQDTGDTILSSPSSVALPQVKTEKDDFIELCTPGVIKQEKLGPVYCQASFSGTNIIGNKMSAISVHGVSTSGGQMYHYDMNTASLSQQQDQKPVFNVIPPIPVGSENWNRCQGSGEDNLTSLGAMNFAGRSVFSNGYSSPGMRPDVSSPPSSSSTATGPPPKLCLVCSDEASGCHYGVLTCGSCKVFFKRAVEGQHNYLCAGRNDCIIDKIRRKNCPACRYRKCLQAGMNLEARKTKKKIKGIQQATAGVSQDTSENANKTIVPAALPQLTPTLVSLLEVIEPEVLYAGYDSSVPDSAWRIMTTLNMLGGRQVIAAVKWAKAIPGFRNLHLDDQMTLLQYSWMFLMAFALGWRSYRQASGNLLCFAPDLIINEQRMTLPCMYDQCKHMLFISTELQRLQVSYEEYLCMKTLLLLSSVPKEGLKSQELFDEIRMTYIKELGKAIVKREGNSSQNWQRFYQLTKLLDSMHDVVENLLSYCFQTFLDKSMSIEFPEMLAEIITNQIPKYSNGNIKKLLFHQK
# Procedure: The reporter gene was the plasmid pJA358 in which the expression of firefly luciferase is regulated by two tandem repeats of the glucocorticoid hormone response element (GRE) linked to the MMTV promoter (Boie et al., 1993).
# Transient transfection of COS and CV1 cells was performed as described (Schmidt 1992). Cells were plated (1.5×10^5 in 1 mL) into 12 well dishes in phenol red-free medium supplemented with activated charcoal treated fetal calf serum. The next day 0.12 mL of DNA 10 μg/ml (5 μg receptor DNA and 5 μg reporter plasmid), as a calcium phosphate precipitate, was added to the cells. Ligands were added to the cells 30 minutes after transfection. The next day (18 hours), the cells were washed and fresh ligands added. Twenty-four hours later, cell extracts were prepared and assayed for luciferase enzyme activity using the luciferase assay system (Promega Madison, Wis.). Each transfection was performed in triplicate and the luciferase activity of each sample measured in duplicate using the AutoClinilumat (Berthold Nashua, N.H.).
# The transfected cells were treated with TOFA at 2 μM, 10 μM, 20 μM, and 50 μM and oleic acid at 50 μM, and 300 μM.
# GR/NER chimeric receptor [2] = assay: Ligand dependent transcription assay, GR/NER chimeric receptor with MMTV-luciferase reporter; type: cell-based, human
# Procedure: To search for putative ligands for the NER receptor, the chimeric receptor GR/NER was prepared. […] Chimeric receptors were prepared in which the amino terminal portion of the mouse glucocorticoid receptor (mGR) that includes the DNA binding domain was fused to the putative ligand binding domains of the nuclear receptor NER to form the respective chimeric receptor GR/NER. The cDNA sequences coding for amino acid residues Arg^155 and Glu^156 of the hNER receptor (Shinar et al., NER, a new member of a gene family encoding the steroid hormone nuclear receptor; GENE (in press) were convened to the Xho I restriction site, which site was later used for the ligation to the GR cDNA sequences that coded for the DNA binding domain. Thus, the amino acid residues Arg^155 and Glu^156 of the NER receptor were convened to amino acid residues Ser^155 and His^156.
# The chimera was employed in ligand dependent transactivation assays with the reporter gene MMTV-luciferase, in which the luciferase cDNA is transcribed under the control of the MMTV promoter.
# Similar hybrid receptors GR/NER, GR/NUC and GR/PPAR, in identical expression plasmid backgrounds were prepared essentially as described for the construction of the GR/mPPAR and GR/NUC chimeric receptors in Schmidt et al., "Identification of a new member of the steroid hormone receptor superfamily that is activated by a peroxisome proliferator and fatty acids," Mol. Endocrinol., 6(10):1634-41, 1992, and in Boie et al., "Enantioselective activation of the peroxisome proliferator-activated receptor", J. Biol. Chem. 268(8):5530-4, 1993.
# Briefly, the amino terminal portion of the mouse glucocorticoid receptor (mGR), that includes the DNA binding domain was fused to the putative ligand binding domains of the nuclear receptor NER, hNUC-I (Schmidt et al., 1992), mPPAR (Issenmann and Green, 1990) to form the respective chimeric receptors GR/NER, GR/NUC and GR/PPAR. The GR/NER chimeric receptor was constructed as described for the GR/NUC and GR/PPAR hybrid receptors (Schmidt et al., 1992; Boie et al). The cDNA sequences coding for amino acids Arg^155 and Glu^156 of the NER receptor were converted to the Xho I restriction site, that was later used for the ligation to the GR cDNA sequences that coded for the DNA binding domain. Thus, converting amino acid residues Arg^155 and Glu^156 of NER receptor to amino acid residues Ser^155 and His^156.
# GR/NER chimeric receptor [3] = assay: Activation of GR/NER in COS-7 cells (luciferase); conditions: 1440 min
# Procedure: The ligand dependent transcription assays were performed as described in Example 4. The transfected COS cells were treated with dopamine, TOFA, or with the combination of TOFA and dopamine at the indicated concentrations and tested for luciferase activity.
# [4] = test system: Muscarinic receptor agonist (Pilocarpine) induced catalepsy; assay: Pilocarpine induced catalepsy (Bar method); type: in vivo, rat; conditions: TOFA 0.4 mg/kg S.C. pretreatment
# Procedure: Catalepsy was determined by a modification of the Bar method (Undie and Friedman, 1988). A steel bar, 1.1 cm in diameter and 50 cm long, was suspended at a height of 10 cm above the working surface. Three sides of the bench around the bar were walled off with brown cardboard, and the linings on the bench surface were selected to be of the same color with the cardboard walls. The animal's hind limbs were freely placed on the bench, the fail laid out to the back, and the forelimbs placed over the bar. The length of time a rat stayed up on the bar was noted up to a preset cut-off point of 120 s. The time was counted off upon observing any of the following actions: (1) the animal came off, placing its two forepaws on the bench, (2) the animal climbed onto or over the bar with both hind limbs, (3) the animal initiated locomotion along or around the bar. Subsequently, time readings were translated into scores by awarding a score of 1 for each successfully completed 5 s on the bar. For each observation time, catalepsy scores were averaged for all the animals in a group to give the Mean Score of the group at that observation time. Further, the scores for each animal at all the observation times were added to give the total score for that animal. The mean of this last group of numbers was called the Mean Total Score of the group.
# Catalepsy scores were analyzed by computer in accordance with the statistical procedures outlined by Winer, B. J.: Statistical principles in experimental design. McGraw-Hill, New York, pp. 10-428, 1971. Generally, for a given set of comparisons, observations were subjected to an appropriate analysis of variance followed by two-tailed Dunnett or Student's t-tests to detect differences between treatment groups.
# Rats were pretreated with 0.4 mg/kg TOFA or with carrier (S.C.). Twenty-four hours later, the rats were challenged with 16 mg/kg Pilocarpine, an agonist of the muscarinic cholinergic receptor, and the duration of catalepsy was monitored as described in Example 10.
# [5] = read-out: Fold of stimulation GR
smiles,measurement,setting,value
"CCCCCCCCCCCCCCOc1ccc(C(=O)O)o1 [TOFA, 5-(tetradecyloxy)-2-furan carboxylic acid]",Expression of MMTV-luciferase reporter after co-transfection of native glucocorticoid receptor,[1],did not stimulate expression
same,fold induction at 2 µM,[1]; [5],1.02 ± 0.4
same,fold induction at 10 µM,[1]; [5],0.8 ± 0.14
same,fold induction at 50 µM,[1]; [5],0.91 ± 0.3
same,Expression mediated by GR/NER,GR/NER chimeric receptor [2],stimulated expression
same,Fold of stimulation GR/NER,GR/NER chimeric receptor [2]; 2 μM,2.35 ± 0.09 fold
same,Fold of stimulation GR/NER,GR/NER chimeric receptor [2]; 10 μM,3.66 ± 0.40 fold
same,Fold of stimulation GR/NER,GR/NER chimeric receptor [2]; 20 μM,4.82 ± 0.28 fold
same,Fold of stimulation GR/NER,GR/NER chimeric receptor [3]; TOFA 10 μM with dopamine 100 μM,3.24 ± 0.06 fold
same,Fold of stimulation GR/NER,GR/NER chimeric receptor [3]; TOFA 100 μM with dopamine 100 μM,2.85 ± 0.07 fold
same,Fold of stimulation GR/NER,"GR/NER chimeric receptor [3]; TOFA 100 μM, no dopamine",3.36 ± 0.04 fold
same,Catalepsy Duration,[4]; 24 h later 16 mg/kg Pilocarpine,84.1 ± 9.6 s
same,Catalepsy Duration,[4]; no challenge,0 s
